This data set can be described thus: gradient 5% acetonitrile 3 min, to 50% in 2 min, to 85% in 15 min, held 3 min, 100 µL/min. Conditions: column: Zorbax Extend-C18 2.1 x 50 mm; eluents: water / acetonitrile, 0.1% formic acid. In a few lines: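 Pure standards were analyzed in mixtures of ~100 molecules using HPLC coupled to a quadrupole time-of-flight mass spectrometer, in both positive and negative ionization mode. Separation used a Zorbax Extend-C18 column (2.1 × 50 mm, 1.8 μm) at 100 μL/min, with water and acetonitrile each containing 0.1% formic acid. Dead and dwell volumes were 40 μL and 900 μL, and data were collected over 3 months. Retention time was read from computationally picked adduct peaks, each inspected manually.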
The compound `CCC(=O)N1CCc2c([nH]c3ccccc23)C12C(=O)N(C)c1ccccc12` (centres undefined) registered an RP-LC retention time of 828 s.
In turn, `Cc1oc(-c2[nH]ncc2C(=O)N2CCOCC2)cc1S(=O)(=O)NC1CCCC1` registered an RP-LC retention time of 645 s.
Regarding `O=C(Nc1cccc(-c2cn3cccnc3n2)c1)c1c(F)cccc1F`, the RP-LC retention time stood at 668 s.
The compound `Cc1cc(-c2nnc(C3CC3)o2)c(C)n1CC(=O)NCc1ccc(F)cc1Cl` registered an RP-LC retention time of 840 s.
Then `COCCN(Cc1ccco1)C(=O)Cn1nc(Cc2cccnc2)c2ccccc2c1=O`, with 613 s.
The figure for `C[C@H](Cc1ccccc1)Nc1ncnc2c1ncn2[C@@H]1O[C@H](CO)[C@H](O)C1O` (some centres undefined) is 696 s; for `COC(=O)c1ccccc1NC(=O)NCc1nc(-c2ccccc2)oc1C` it is 964 s.
Then `COCCn1c(C)cc(O)c(C(c2ccc(OC)cc2OC)N2CCCCC2)c1=O` (centres undefined), with 688 s; and `COc1cc(C(=O)N2CCN(c3cc(C(C)C)n4cnnc4n3)CC2)cc(OC)c1OC`, with 613 s.
`COc1nn(C)cc1C(=O)Nc1nnc(C2CC(=O)N(c3ccccc3)C2)o1` (centres undefined) came in with an RP-LC retention time of 610 s.
Then `COc1cc(NC(=O)c2nc(C)oc2C)cc(OC)c1`, with 750 s; and `Cc1cc(C)nc(-n2nc(C)cc2N)n1`, with 577 s.
Compound `CCNC(=O)C1CCCN(S(=O)(=O)c2ccc(OC)c(OC)c2)C1` (centres undefined) registered an RP-LC retention time of 684 s.
Then `CNC(=O)c1cc(C)nc2ccc(C)cc12`, with 561 s; and `COc1ccccc1CCC(=O)N1C[C@@H]2C[C@H](NS(C)(=O)=O)[C@H]1C2`, with 678 s; and `Cc1cccc(C(=O)N2CCc3ccc(CNC(=O)NCC4CCCO4)cc32)c1` (centres undefined), with 894 s.
Then `Cc1noc(C2(NC(=O)c3sccc3C)CCCCC2)n1`, with 882 s; and `COc1ccc(-c2nc3cnccn3c2Nc2ccc(C(=O)NCCN(C)C)cc2)cc1`, with 586 s.
The figure for `Cc1cccc(C)c1NC(=O)C1CCCN(c2nnc(C)c3c(C)n(-c4ccccc4)nc23)C1` (centres undefined) is 776 s.
For the compound `O=C(Nc1nccs1)C1CCCN(S(=O)(=O)c2cc(-c3noc(C4CCCC4)n3)cs2)C1` (centres undefined), the RP-LC retention time worked out at 1060 s.
The figure for `COc1cccc(-c2noc(-c3nn(-c4ccc(Cl)cc4)ccc3=O)n2)c1OC` is 896 s.
The compound `COc1cccc2c1OC1(C)CC2C(S(=O)(=O)c2ccc(C(C)(C)C)cc2)C(=O)N1` (centres undefined) returned an RP-LC retention time of 1010 s.
Then `COc1cc(NC(=O)CN2CCN(Cc3ccc(C)cc3)C(=O)C2=O)cc(OC)c1OC`, with 709 s; and `Cc1nc(CC(=O)Nc2nc(-c3ccc(F)cc3)cs2)cs1`, with 863 s; and `CC(C)c1nnc(C2CN(Cc3cccc(C(F)(F)F)c3)CC23CCN(C)CC3)o1` (centres undefined), with 593 s.
`O=c1ccn(-c2ccc(F)c(F)c2)nc1-c1nc(-c2ccccc2)no1`: the RP-LC retention time turned out to be 878 s.
Turning to `CCCNC(=O)CC1=C2CCCCC2N(C)C1=O` (centres undefined), the RP-LC retention time was 638 s.
Compound `O=C(Nc1ccccc1F)N1CC(c2nc(CCOCC3CC3)no2)C1` displayed an RP-LC retention time of 786 s.
Then `Cc1cc(N2CCN(C(=O)c3cccc(N(C)C)c3)CC2)nc2nncn12`, with 1010 s; and `CC(C)c1noc(COC2CCCN(C(=O)NCc3ccccc3)C2)n1` (centres undefined), with 780 s; and `CCOC(=O)c1noc2ncnc(NCCCN3CCN(c4cc(C)ccc4C)CC3)c12`, with 738 s.
The figure for `Cc1ccc(Cl)cc1NC(=O)Cn1nc2c3cc(Cl)ccc3ncn2c1=O` is 770 s; for `CCC(C)NC(=O)Cn1cccc(-c2nc(-c3ccc(C)cc3)no2)c1=O` (centres undefined) it is 814 s.
The figure for `CN(C)C(CNC(=O)c1ccccc1C(F)(F)F)c1cn(C)c2ccccc12` (centres undefined) is 602 s.
For `CCc1nc2c(=O)n(CC(=O)N3CCCCC3)nc(C)c2s1`, the RP-LC retention time was determined as 673 s.
Turning to `COCCOC1CCC12CCN(C(=O)c1cnc[nH]1)CC2` (centres undefined), the RP-LC retention time came to 575 s.
`COc1ccc2sc(OC3CCN(C(=O)c4cnn(-c5ccccc5)n4)CC3)nc2c1`: the RP-LC retention time was 1140 s.
Then `COc1ccc(-c2nc(-c3ccc(-c4ccc(Cl)cc4)o3)[nH]c2-c2ccc(OC)cc2)cc1`, with 988 s.
The figure for `CCc1nc(-c2csc(S(=O)(=O)N3CCCC(C(=O)NCc4ccc(F)cc4)C3)c2)no1` (centres undefined) is 976 s; for `CC(CNC(=O)C1CCCN1S(=O)(=O)c1cc2c(cc1Cl)NC(=O)CO2)c1ccccc1` (centres undefined) it is 834 s; for `COc1ccc(-c2nnc(-c3ccc(OC)c(S(=O)(=O)N4CCCCCC4)c3)o2)cc1OC` it is 979 s.
The compound `CCN(CC)CCNC(=O)c1ccc2cnn(Cc3ccc(F)cc3)c2c1` showed an RP-LC retention time of 650 s.
The figure for `O=C(Cn1c(C(F)(F)F)nc2cc3c(cc21)OCCO3)NCc1ccc2c(c1)OCCCO2` is 818 s; for `Cc1ccc(NC(=O)C2CCCN(C(=O)C3Sc4ccccc4NC3=O)C2)cc1` (centres undefined) it is 741 s.
The figure for `CCn1c(=O)c2ccccc2n(Cc2nc(-c3ccc(OC)cc3)no2)c1=O` is 993 s.
`O=C(c1ccc(F)c(F)c1)N1CCC2(CC1)N=C(c1ccc(Cl)cc1)NO2`: the RP-LC retention time amounted to 920 s.
Then `CCCc1cc(N2CCN(C(=O)C3CC3)CC2)nc2nncn12`, with 586 s.
The figure for `Cc1cccc(S(=O)(=O)N2CCc3nc(-c4ccc(F)cc4)ncc3C2)c1` is 1140 s; for `CCOc1cc(=O)n2c(c1C(=O)NC(C)C)CCCCC2` it is 623 s; for `CCCn1nc(CNC(=O)c2ccsc2)c2ccccc21` it is 825 s.
The figure for `O=C(c1cccs1)N1CCc2c([nH]c3ccccc23)C1c1ccc(Cl)cc1` (centres undefined) is 1220 s; for `Cn1cc(C(=O)NCc2ccccc2F)c(S(=O)(=O)N2CCSCC2)n1` it is 865 s; for `CCN1C(=O)COc2ccc(-c3nc(NC(=O)C4CCCO4)sc3C)cc21` (centres undefined) it is 844 s.
On to `Cc1ccc(S(=O)(=O)N2CC(=O)N(c3ccccc3F)C(C)(C(=O)NCCC(C)C)C2)cc1` (centres undefined), for which the RP-LC retention time was 1020 s.
The figure for `CC(C)NC(=O)Cn1c2ccccc2n2c(=O)cc(-c3cccc(Cl)c3)nc12` is 926 s; for `CCOc1ccccc1NC(=O)N1C[C@@H]2CN(S(=O)(=O)c3ccc(C)cc3)C[C@H](C1)O2` it is 915 s.
`Cn1c(=O)c2cc(C(=O)NCC3CCCCC3)nn2c2ccccc21` returned an RP-LC retention time of 957 s.
For the compound `O=C1CC(c2noc(-c3cccc(F)c3)n2)CN1c1ccc(Cl)cc1` (centres undefined), the RP-LC retention time was determined as 1080 s.
Consider `O=C(c1ccc(F)c(Cl)c1)N(CC1CCOC1)C1CC1` (centres undefined), for which the RP-LC retention time came to 824 s.
The figure for `CCCn1cc(CCNS(=O)(=O)c2ccc(F)c(C)c2)c2cccnc21` is 893 s; for `O=C(c1ccc(OCC2CCCN(C(=O)c3cccs3)C2)cc1)N1CCOCC1` (centres undefined) it is 620 s.
The compound `Cc1cc(C)nc(SCC(=O)Nc2cccc3ccccc23)n1` gave an RP-LC retention time of 779 s.
Then `COc1ccc(Cc2nc3nccc(-c4ccco4)n3n2)cc1`, with 855 s.
`CCOc1ccc(NS(=O)(=O)c2cc(C(=O)N3CCN(c4ccccc4)CC3)n[nH]2)cc1` gave an RP-LC retention time of 883 s.
The compound `C=CCn1c(=O)c2ccccc2n(Cc2nc(-c3ccc(Cl)cc3)no2)c1=O` showed an RP-LC retention time of 1130 s.
Then `C[C@H]1CN(C(=O)c2cc(Cl)ccc2F)C[C@@H]1c1nc(-c2ccncc2)no1`, with 857 s.
`O=C(Cc1ccc(Br)cc1)N1CCN(c2cc(-c3ccccc3)[nH]n2)CC1`: the RP-LC retention time turned out to be 873 s.
Then `CCCS(=O)(=O)N1CCC2(CC1)C(OC)CN2c1cccc(F)c1` (centres undefined), with 1040 s.
Regarding `CCOc1ccc(C(C)NC(=O)C2CCN(c3cncnc3N3CCOCC3)CC2)cc1` (centres undefined), the RP-LC retention time worked out at 649 s.
Then `COc1cc(-c2ccccc2)nc2ccc(NS(=O)(=O)c3ccc(NC(C)=O)cc3)cc12`, with 653 s; and `COC(=O)[C@H](Cc1ccc(C#Cc2ccccc2)cc1)NC(=O)C[C@H]1CCCN(C(=N)N)C1`, with 772 s.
The figure for `C=Cc1ccc(Cn2nc3ccc(S(=O)(=O)N4CCC(C)CC4)cn3c2=O)cc1` is 1060 s; for `O=C(NCc1noc(-c2ccco2)n1)c1coc(C2CC2)n1` it is 736 s; for `O=C(C1CCCN(c2nnc(-n3cccc3)s2)C1)N1CCN(Cc2ccccc2)CC1` (centres undefined) it is 661 s.
`COCCC1(NC(=O)C2CC2)CCN(S(=O)(=O)c2c(C)noc2C)CC1` showed an RP-LC retention time of 740 s.
Then `CCC(Oc1ccc(=O)n(-c2cc(Cl)ccc2C)n1)C(=O)NCCOC` (centres undefined), with 698 s; and `Cc1ccc(Cc2nc(-c3ccc4oc(C)nc4c3)no2)cc1`, with 1070 s; and `Cc1nn(-c2ccccc2)c(C)c1S(=O)(=O)N1CCC(C(=O)NCc2ccc(Cl)cc2)CC1`, with 966 s.
The figure for `COc1ccc2nc3oc(C(=O)NCCCN4CCCC(C)C4)cc3cc2c1` (centres undefined) is 934 s.
